Here are results for 2 compounds from patent US8269007B2, “Crystalline form II of 7-(dimethoxy-methyl) camptothecin, its use as intermediate and products obtained therefrom” (Sigma-Tau Industrie Farmaceutiche Riunite SpA, priority 2007, dated 2012).

A short description of this series: Thermal behaviour (TGA melting range apparatus Mettler TG 50, confirmed by DSC Mettler DSC 30). The following applies: for decomposition temperature: heat ramp 20° C./min (TGA/DSC).

For the compound `CC[C@@]1(O)C(=O)OCc2c1cc1n(c2=O)Cc2c-1nc1ccccc1c2C(OC)OC` [Form I, 7-(dimethoxy-methyl)camptothecin], the “thermal stability of one crystal form compared with the other” value (FT-IR, powder x-ray and TGA / DSC-TGA comparison of Form I and Form II) was “less stable”. For the same compound, the decomposition temperature is 123.38 °C (listed as 7-(dimethoxy-methyl)camptothecin form I) and 123.38 °C (listed as form I).
As for `CC[C@@]1(O)C(=O)OCc2c1cc1n(c2=O)Cc2c-1nc1ccccc1c2C(OC)OC` [Form II, (4S)-11-(dimethoxymethyl)-4-ethyl-4-hydroxy-1H-pyrano[3′,4′:6,7]indolizino[1,2-b]quinoline-3,14(4H,12H)-dione], the decomposition temperature turned out to be 173.56 °C.
